Our source for the MED and IC50 values is ChEMBL document CHEMBL1153256, “Unusual stereochemical preferences of decahydroisoquinoline-3-cargoxylic acid competitive NMDA antagonists” (Bioorg Med Chem Lett, 1993).

For one test, the species on record is Mus musculus. Briefly: Minimum effective dose to prevent NMDA-induced lethality in mice. It counts as functional.
The next test addresses Glutamate NMDA receptor. Nature of the test: Inhibition of [3H]-CGS- 19755 binding to rat brain membrane NMDA receptor.
Another test is filed under the species Rattus norvegicus. Nature of the test: Compound was tested for relative potency as NMDA antagonist by determining its ability to inhibit depolarizations induced by 40 uM NMDA in a cortical slice preparation. Type of test: functional.

Take `O=C(O)C1CC2CC(Cc3nnn[nH]3)CCC2CN1` (racemic; form 2): the MED in the test listed under Mus musculus amounted to 2.5 mg/kg. The half-inhibitory concentration (IC50) (as a rule, the concentration needed to halve the response being measured) was 0.94 µM at Glutamate NMDA receptor and 1.39 µM in the test filed under Rattus norvegicus.
In the same order, the values of `O=C(O)C1CC2CC(CP(=O)(O)O)CCC2CN1` (stereo in doubt; (+)-1 R) are 80 mg/kg, 8.4 µM and 33 µM.
In the same order, the values of `O=C(O)C1CC2CC(CP(=O)(O)O)CCC2CN1` (racemic; form 1) are 1.25 mg/kg, 0.055 µM and 0.15 µM.
In the same order, the values of `O=C(O)C1CC2CC(Cc3nnn[nH]3)CCC2CN1` (single isomer, unassigned; (+)) are above 160 mg/kg, 22.6 µM and above 100 µM.
`O=C(O)C1CC2CC(CP(=O)(O)O)CCC2CN1` (single isomer, unassigned; (-)) showed an MED in the test listed under Mus musculus of 0.625 mg/kg. Besides, the IC50 on Glutamate NMDA receptor was 0.025 µM; in the test filed under Rattus norvegicus it was 0.22 µM.
For `O=C(O)C1CC2CC(Cc3nnn[nH]3)CCC2CN1` (stereo in doubt; (-)-4 R), the 50% inhibitory concentration (IC50) on Glutamate NMDA receptor is 3.32 µM; in the test filed under Rattus norvegicus it was 6.2 µM.
In the case of `O=C(O)C1CC2CC(CP(=O)(O)O)CCC2CN1` (racemic; form 2), the MED in the test filed under Mus musculus was found to be 2.5 mg/kg. Besides, the values for the 50% inhibitory concentration (IC50) on Glutamate NMDA receptor and in the test listed under Rattus norvegicus were 0.82 µM and 1.7 µM, respectively.
With `O=C(O)C1CC2CC(Cc3nnn[nH]3)CCC2CN1` (stereo in doubt; (+)-4 S), the IC50 amounted to 5.16 µM on Glutamate NMDA receptor and 28 µM in the test listed under Rattus norvegicus.
In turn, `O=C(O)C1CC2CC(CP(=O)(O)O)CCC2CN1` (stereo in doubt; (-)-3 R) came in with an IC50 at Glutamate NMDA receptor of 0.67 µM.
In turn, `O=C(O)C1CC2CC(Cc3nnn[nH]3)CCC2CN1` (stereo in doubt; (-)-2 S) displayed an MED in the test listed under Mus musculus of 1.25 mg/kg. Further, the half-maximal inhibitory concentration (IC50) on Glutamate NMDA receptor came to 0.42 µM; in the test listed under Rattus norvegicus, 0.82 µM.
In the same order, the values of `O=C(O)C1CC2CC(Cc3nnn[nH]3)CCC2CN1` (racemic; form 1) are 40 mg/kg, 3.41 µM and 4.8 µM.
For `O=C(O)C1CC2CC(CP(=O)(O)O)CCC2CN1` (stereo in doubt; (+)-3 S), the half-maximal inhibitory concentration (IC50) at Glutamate NMDA receptor was determined as 8.7 µM. This lies in the single-digit micromolar range.
